Reference: PMC6753678, “Fueling Open Innovation for Malaria Transmission-Blocking Drugs: Hundreds of Molecules Targeting Early Parasite Mosquito Stages” (Frontiers in Microbiology, 2019)
Read-outs that look alike come from different tables or passages of the source.

Tests used:
[1] = system: P. falciparum female gametocytes; test: P. falciparum female gametogenesis assay (Pf FGAA); conditions: 1: YES; 0: NO; >10-fold selectivity over cytotox
[2] = system: P. falciparum female gametocytes; design: method as in Miguel-Blanco et al 2017; conditions: ref Miguel-Blanco et al 2017; read-out: Pf FGAA IC50; cited from earlier work
[3] = system: HepG2 cells; test: HepG2 cytotoxicity assay; conditions: for IC50: read-out: HepG2 cytotoxicity assay IC50, dose response confirmation
Procedure, shortened: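 Cells are plated at 2,500 per well on compound-treated plates in MEM containing 10% fetal bovine serum and 1% NEAA, then incubated 48 h at 37°C.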

[4] = system: HepG2 cells; conditions: HepG2; ref Miguel-Blanco et al 2017; cited from earlier work
[5] = system: 3D7-strain P. falciparum asexual parasites; test: P. falciparum asexual growth inhibition assay (Pf GIA); format: cell-based, Plasmodium falciparum; conditions: dose response confirmation; read-out: Pf asexual growth inhibition assays IC50
Procedure, shortened: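 Read-out was lactate dehydrogenase activity measured by absorbance at 650 nm after freezing and thawing, against 50 μM chloroquine and DMSO controls. Before that, asexual 3D7 cultures (0.25% parasitemia, 2% hematocrit) had 72 h dose-response compound exposure at 37°C in 5% CO2/5% O2/90% N2; three independent replicates averaged.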

[6] = system: P. berghei ookinete development; conditions: for % inhibition, Replicate A / % inhibition, Replicate B: primary screen at 1 μM
[7] = unified HepG2 cytotoxicity across the three screens
[8] = read-out: Pb ODA IC50, this manuscript
[9] = read-out: Pb Ookinete development assay IC50, dose response confirmation
[10] = HepG2 values of the three screens unified
[11] = unified HepG2 value across the three screens

Structure (SMILES) | Is compound selective in assay? Pf FGAA active? [1] | IC50 [2] [nM] | Unified cytotox [3, 7] [µM] | IC50 [5] [nM] | % inhibition, Replicate A [6] [%] | % inhibition, Replicate B [6] [%] | IC50 [6, 8] [nM] | IC50 [6, 9] [nM] | IC50 [3] [nM] | further results
O=C(/C=C/c1ccc(Cl)c(Cl)c1)N1CCC(CN2CCC(c3c[nH]c4ccncc34)CC2)CC1 [TCMDC-140074] | 0 (0: NO) | 870 | 5.32 |  |  |  |  |  |  | 
COc1ccc(NC(=O)c2ccc(OCCCCCCCOc3ccc(C(=O)Nc4ccc(OC)c(N5CCN(C)CC5)c4)cc3)cc2)cc1N1CCN(C)CC1.O=C(O)C(=O)O [TCMDC-139007] | 0 (0: NO) | 1410 | 4.43 |  |  |  |  |  |  | 
CN1CCN(CCCNCc2ccccc2-c2cccc(CNCc3ccc4c(c3)OCO4)c2)CC1.O=C(O)C(F)(F)F [TCMDC-140476] | 0 (0: NO) | 1640 | 1.51 |  |  |  |  |  |  | 
CC(C)(CNC(=O)[C@H]1CCCN1)c1nc(-c2ccc(Cl)c(O)c2)c(-c2ccncc2)[nH]1.Cl [TCMDC-141060] | 1 (1: YES) | 1210 | 32.74 |  |  |  |  |  |  | 
O=C(O)C(F)(F)F.O=S(=O)(c1ccccc1)n1ccc2cc(Nc3ncnc4cc(C#C[C@H]5CCCN5)sc34)ccc21 [TCMDC-138913] | 0 (0: NO) | 1170 | 5.50 |  |  |  |  |  |  | 
CN1CCc2cc(NS(=O)(=O)c3ccc(-c4ccc(Cl)cc4)cc3)c(OCCCN3CCCCC3)cc2CC1.Cl [TCMDC-141754] | 0 (0: NO) | 970 | 2.23 |  |  |  |  |  |  | 
Nc1ccc2[nH]cc(C3CCN(CC4CCC(NC(=O)/C=C/c5ccc(Cl)c(Cl)c5)CC4)CC3)c2n1 (stereo not drawn) [TCMDC-140064] | 1 (1: YES) | 690 | 12.59 |  |  |  |  |  |  | 
CC(C)(CNC(=O)[C@@H]1CCCCN1)c1nc(-c2ccc(Cl)c(O)c2)c(-c2ccncc2)[nH]1.Cl [TCMDC-141079] | 1 (1: YES) | 1580 | 38.91 |  |  |  |  |  |  | 
Cc1cc2nc(N=C3NC4(c5ccccn5)NC(=Nc5nc6cc(C)c(C)cc6[nH]5)NC4(c4ccccn4)N3)[nH]c2cc1C.O=C(O)C(F)(F)F (stereo not drawn) [TCMDC-139105] | 0 (0: NO) | 5340 | 35.91 |  |  |  |  |  |  | 
CC(C)(C)c1ccc(CNCCOc2ccc(Nc3nnc(-c4ccc(-c5ncc[nH]5)cc4)o3)c3ccccc23)cc1.O=C(O)C(F)(F)F [TCMDC-138667] | 0 (0: NO) | 620 | 5.96 |  |  |  |  |  |  | 
Nc1ccc2[nH]cc(C3CCN(CCC4CCN(C(=O)/C=C/c5ccc(Cl)c(Cl)c5)CC4)CC3)c2n1 [TCMDC-140062] | 0 (0: NO) | 1290 | 8.13 |  |  |  |  |  |  | 
Cc1ccc(Cn2nc(Cl)c(N3CCCNCC3)cc2=O)cc1NC(=O)Nc1ccc(-c2ccccc2)cc1.O=C(O)C(F)(F)F [TCMDC-141697] | 0 (0: NO) | 990 | 7.25 |  |  |  |  |  |  | 
Clc1ccc(Nc2nc(NCc3ccccc3)nc(N/N=C/c3ccccn3)n2)cc1 [TCMDC-138557] | 1 (1: YES) | 260 | 13.96 |  |  |  |  |  |  | 
CCN(CC)CCN(Cc1ccc(-c2ccc(C(F)(F)F)cc2)cc1)C(=O)Cn1cc(Cc2cnn(C)c2)c(=O)nc1/C=C/c1ccc(F)cc1.O=C(O)C(O)C(O)C(=O)O [TCMDC-140741] | 1 (1: YES) | 1210 | 13.81 |  |  |  |  |  |  | 
CC(=O)Nc1ccc2[nH]cc(C3CCN(CC4CCC(NC(=O)/C=C/c5ccc(Cl)c(Cl)c5)CC4)CC3)c2n1 (stereo not drawn) [TCMDC-140114] | 0 (0: NO) | 1740 | 13.49 |  |  |  |  |  |  | 
COc1cccc(C23N=C(Nc4nc5ccccc5[nH]4)NC2(c2cccc(OC)c2)NC(Nc2nc4ccccc4[nH]2)=N3)c1 (stereo not drawn) [TCMDC-139087] | 1 (1: YES) | 90 | 40.74 |  |  |  |  |  |  | 
Cc1[nH]c(C)c(-c2ccc(CCc3ccc(F)cc3F)cc2)c(=O)c1Cl [TCMDC-135462] |  | 13300 |  | 2.53 | 91.00 | 103.90 | 10 | 11 | 100000 | HepG2 cytoxicity (Pf FGAA screen) [4]: >100 µM; Is compound selective in assay? Pb ODA active? ([6]; 1: YES, 0: NO): 1 (1: YES); Unified cytotox [3, 10]: 100.00 µM
CC(C)(CN)c1nc(-c2ccc(Cl)c(O)c2)c(-c2ccncc2)[nH]1.Cl [TCMDC-140369] |  | 940 |  | 194 | 54.47 | 53.78 | 510 | 514 | 1660 | HepG2 cytoxicity (Pf FGAA screen) [4]: 2.16 µM; HepG2 cytoxicity (Pb ODA, this manuscript) [3]: 1.66 µM; Unified cytotox [3, 10]: 1.91 µM
Cc1nc2c(c([O-])c1Cl)-c1ccc(Oc3cccc(C(F)(F)F)c3)cc1C2=O.[Na+] [TCMDC-136021] |  |  |  | 54 | 94.15 | 74.80 | 780 | 785 | 39800 | Is compound selective in assay? Pb ODA active? ([6]; 1: YES, 0: NO): 1 (1: YES); Unified cytotox [3, 11]: 39.81 µM
CC(=O)Nc1ccc(Nc2c3ccccc3nc3ccccc23)cc1 [TCMDC-124356] |  |  |  | 1090 | 62.81 | 63.52 | 600 | 598 | 14100 | Is compound selective in assay? Pb ODA active? ([6]; 1: YES, 0: NO): 1 (1: YES); Unified cytotox [3, 11]: 14.13 µM
COc1ccc2nccc([C@@H](O)CN3CCC(NC(=O)c4cc5c(F)cc(F)cc5[nH]4)CC3)c2n1 [TCMDC-134945] |  |  |  | 769 | 54.14 | 76.92 |  | 415 | 10500 | Is compound selective in assay? Pb ODA active? [6]: 1 (key: 1: YES; 0: NO); IC50 ([6]; read-out: Pb ODA (this manuscript) IC50, P. berghei ookinete development assay, this manuscript): 420 nM; Pb ODA (this manuscript) HepG2 cytoxicity ([3]; HepG2 cytotoxicity listed with the Pb ODA data set (this manuscript)): 10.47 µM
CCCN1CCN(CCNc2c3ccccc3nc3ccccc23)CC1 [TCMDC-137549] |  |  |  | 965 | 61.15 | 52.76 | 2010 | 2010 | 7410 | Is compound selective in assay? Pb ODA active? ([6]; 1: YES, 0: NO): 0 (0: NO); HepG2 cytoxicity (Pb ODA, this manuscript) [3]: 7.41 µM; Unified cytotox [3, 10]: 7.41 µM
c1ccc(CCNc2ncnc3c2[nH]c2ccccc23)cc1 [TCMDC-124578] |  |  |  | 270 | 104.22 | 87.03 | 370 | 368 | 10600 | Is compound selective in assay? Pb ODA active? ([6]; 1: YES, 0: NO): 1 (1: YES); Unified cytotox [3, 11]: 10.59 µM
CCC(CC)n1c(C)cc2c3c(N)nc(N)nc3ccc21 [TCMDC-137283] |  |  |  | < 0.2 | 93.53 | 103.53 | 850 | 846 | 1.7 | Is compound selective in assay? Pb ODA active? ([6]; 1: YES, 0: NO): 0 (0: NO); HepG2 cytoxicity (Pb ODA, this manuscript) [3]: 0.0017 µM; Unified cytotox [3, 10]: 0.0017 µM
Cc1[nH]c(C)c(-c2ccc(-c3cccc(Cl)c3)nc2)c(=O)c1Br [TCMDC-136160] |  |  |  | 251 | 97.52 | 67.64 | 2090 | 2090 | 100000 | Is compound selective in assay? Pb ODA active? ([6]; 1: YES, 0: NO): 1 (1: YES); Unified cytotox [3, 10]: 100.00 µM
